# Test results taken from article PMC7339578, “Multiple circulating alkaloids and saponins from intravenous Kang-Ai injection inhibit human cytochrome P450 and UDP-glucuronosyltransferase isozymes: potential drug–drug interactions” (Chinese Medicine, 2020).
# Read-outs that look alike come from different tables or passages of the source.
# Columns and labels:
# [1] = Protein binding assay (equilibrium dialysis); type: in vitro ADME, rat; conditions: rat plasma
# Outline: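 Rat plasma binding was measured by equilibrium dialysis (12–14 kDa cutoff membrane), equilibrated 24 h at 37 °C and 55 rpm. Alkaloids were tested at 2 μmol/L and saponins at 4 μmol/L. Unbound fraction = dialysate concentration/post-dialysis plasma concentration × 100%.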
# CYP2C9 = CYP2C9 (Homo sapiens, UniProt P11712); assay: Inhibition of recombinant CYP2C9 (probe tolbutamide); type: in vitro ADME; conditions: for IC50: read-out: IC50 towards CYP2C9
# Chain of CYP2C9 (P11712 whole entry): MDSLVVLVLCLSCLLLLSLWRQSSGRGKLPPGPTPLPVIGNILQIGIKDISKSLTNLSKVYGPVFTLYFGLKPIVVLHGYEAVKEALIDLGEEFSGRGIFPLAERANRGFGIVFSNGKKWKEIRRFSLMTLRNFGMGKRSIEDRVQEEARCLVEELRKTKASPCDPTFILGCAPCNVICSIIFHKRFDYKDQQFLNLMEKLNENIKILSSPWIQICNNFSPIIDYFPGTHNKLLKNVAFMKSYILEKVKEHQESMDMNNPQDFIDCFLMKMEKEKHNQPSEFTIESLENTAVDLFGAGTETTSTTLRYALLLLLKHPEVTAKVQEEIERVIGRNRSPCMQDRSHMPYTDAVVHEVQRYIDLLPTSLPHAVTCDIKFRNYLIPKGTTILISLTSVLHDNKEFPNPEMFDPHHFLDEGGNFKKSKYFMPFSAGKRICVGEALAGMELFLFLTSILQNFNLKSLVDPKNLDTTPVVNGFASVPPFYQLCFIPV
# Experimental: In this study, phenacetin (100 μM), coumarin (100 μM), bupropion (100 μM), paclitaxel (60 μM), tolbutamide (200 μM), mephenytoin (100 μM), chlorzoxazone (200 μM) and nifedipine (40 μM) have been used as the probe substrates for CYP1A2, 2A6, 2B6, 2C8, 2C9, 2C19, 2E1 and 3A4, respectively.
# UGT1A1 = target: T1, UGT1A1 (Homo sapiens, UniProt P22309); assay: Inhibition of expressed UGT1A1 (probe β-estradiol); type: in vitro ADME
# T1 sequence (P22309 26-533): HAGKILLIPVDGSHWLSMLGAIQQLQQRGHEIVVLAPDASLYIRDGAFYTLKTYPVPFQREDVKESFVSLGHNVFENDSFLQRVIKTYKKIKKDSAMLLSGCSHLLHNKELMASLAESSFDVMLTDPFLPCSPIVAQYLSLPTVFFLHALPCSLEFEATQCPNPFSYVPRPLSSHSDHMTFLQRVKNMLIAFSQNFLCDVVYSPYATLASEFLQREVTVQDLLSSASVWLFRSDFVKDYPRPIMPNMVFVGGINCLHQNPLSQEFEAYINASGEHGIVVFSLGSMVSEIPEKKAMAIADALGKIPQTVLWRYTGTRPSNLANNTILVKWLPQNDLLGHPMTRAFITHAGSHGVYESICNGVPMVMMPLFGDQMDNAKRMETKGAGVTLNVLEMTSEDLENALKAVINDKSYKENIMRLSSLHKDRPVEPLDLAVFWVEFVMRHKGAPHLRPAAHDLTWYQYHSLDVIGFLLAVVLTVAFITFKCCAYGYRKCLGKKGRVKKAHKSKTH
# Experimental: (§1) After centrifugation (13,800g, 10 min), the supernatant (8 μL) was obtained for determination by UHPLC system.
# (§2) Similarly, β-estradiol (60 μM), propofol (40 μM) and 4-MU (350 μM) were typically used as the substrates for UGT1A1, 1A9 and 2B7, respectively. After optimization of incubation conditions (Additional file 1: Fig. S2), the protein concentrations for UGT1A1, 1A9, and 2B7 were 0.125, 0.05, and 0.05 mg/mL, respectively.
# UGT2B7 = target: T2, UGT2B7 (Homo sapiens, UniProt P16662); assay: Inhibition of expressed UGT2B7 (probe 4-MU); type: in vitro ADME; conditions: recombinant isozyme; mean ± SD of triplicate; unit not given (IC50 classes in μM); read-out: IC50 towards UGT2B7
# T2 sequence (P16662 24-529): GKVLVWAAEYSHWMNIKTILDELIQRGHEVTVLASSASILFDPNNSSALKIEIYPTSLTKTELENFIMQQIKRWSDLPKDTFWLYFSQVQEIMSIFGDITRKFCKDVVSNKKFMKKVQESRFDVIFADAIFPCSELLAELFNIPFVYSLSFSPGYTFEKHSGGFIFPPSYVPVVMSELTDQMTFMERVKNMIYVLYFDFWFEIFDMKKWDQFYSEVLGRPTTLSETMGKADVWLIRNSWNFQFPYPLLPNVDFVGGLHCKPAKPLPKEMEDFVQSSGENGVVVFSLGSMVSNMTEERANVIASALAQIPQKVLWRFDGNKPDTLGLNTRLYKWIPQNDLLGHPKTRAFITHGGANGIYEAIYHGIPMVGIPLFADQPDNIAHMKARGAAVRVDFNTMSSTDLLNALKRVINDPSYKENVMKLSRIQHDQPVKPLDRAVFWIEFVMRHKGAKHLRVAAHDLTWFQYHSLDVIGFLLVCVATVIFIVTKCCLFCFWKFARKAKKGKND
# Experimental: as §1, §2
# [2] = Stability tests of analytes in rat plasma QC samples; type: in vitro ADME; conditions: rat plasma
# Experimental: […] The dilution integrity was investigated by analyzing six replicate samples with each analyte, and each analyte were diluted 10-fold with blank rat matrix. Furthermore, the diluted samples were analyzed using freshly prepared calibration curve to calculate RE and RSD, which should be no more than ± 15% as criterion.
# [3] = recombinant isozyme, mean ± SD of triplicate, unit not given (IC50 classes in μM), read-out: IC50 towards UGT1A1
smiles,measurement,setting,value
"CC(C)(O)[C@@H]1CC[C@](C)([C@H]2[C@@H](O)C[C@@]3(C)[C@@H]4C[C@H](O[C@@H]5O[C@H](CO)[C@@H](O)[C@H](O)[C@H]5O)[C@H]5C(C)(C)[C@@H](O[C@@H]6OC[C@@H](O)[C@H](O)[C@H]6O)CC[C@@]56C[C@@]46CC[C@]23C)O1 [Compound B2, Astragaloside IV]",bound in rat plasma,[1]; equilibrium dialysis,~90%
same,fu-plasma (unbound fraction),"[1]; equilibrium dialysis 24 h, 37 °C, 2 μmol/L alkaloids, 4 μmol/L saponins",12.35 ± 1.02%
same,inhibition type (smallest AIC and SC),CYP2C9; CYP2C9,Noncompetitive inhibition
same,Ki,"CYP2C9; CYP2C9, competitive model",17.4 ± 3.7 µM
same,Ki,"CYP2C9; CYP2C9, mixed-type model",45 ± 16.6 µM
same,α,"CYP2C9; CYP2C9, mixed-type model",1.5 ± 1.0
same,Ki,"CYP2C9; CYP2C9, noncompetitive model",55.8 ± 5.3 µM
same,Cmax/Ki ([I]/Ki),"CYP2C9; CYP2C9, selected model, rat plasma Cmax",0.04
same,IC50,CYP2C9; tolbutamide 200 μM,65 µM
same,IC50,UGT1A1; [3],> 100 µM
same,IC50,UGT2B7,> 100 µM
same,"At -80 °C for 48 h, Mean±SD",[2]; nominal conc. 80 nM,87.06 ± 0.84 nM
same,"At -80 °C for 48 h, RE",[2]; nominal conc. 80 nM,9.91%
same,"Extracted samples at 8 °C for 18 h, Mean±SD",[2]; nominal conc. 80 nM,80.76 ± 10.01 nM
same,"Extracted samples at 8 °C for 18 h, RE",[2]; nominal conc. 80 nM,-13.07%
same,"Short-term stability at room temperature for 6 h, Mean±SD",[2]; nominal conc. 80 nM,82.35 ± 9.84 nM
same,"Short-term stability at room temperature for 6 h, RE",[2]; nominal conc. 80 nM,-11.26%
same,"Three freeze-thaw cycles (-80 °C ↔ 23 °C), Mean±SD",[2]; nominal conc. 80 nM,88.56 ± 1.31 nM
same,"Three freeze-thaw cycles (-80 °C ↔ 23 °C), RE",[2]; nominal conc. 80 nM,12.35%
same,"At -80 °C for 48 h, Mean±SD",[2]; nominal conc. 400 nM,378.90 ± 6.78 nM
same,"At -80 °C for 48 h, RE",[2]; nominal conc. 400 nM,-7.16%
same,"Extracted samples at 8 °C for 18 h, Mean±SD",[2]; nominal conc. 400 nM,376.72 ± 29.81 nM
same,"Extracted samples at 8 °C for 18 h, RE",[2]; nominal conc. 400 nM,-10.44%
same,"Short-term stability at room temperature for 6 h, Mean±SD",[2]; nominal conc. 400 nM,361.42 ± 15.40 nM
same,"Short-term stability at room temperature for 6 h, RE",[2]; nominal conc. 400 nM,-13.36%
same,"Three freeze-thaw cycles (-80 °C ↔ 23 °C), Mean±SD",[2]; nominal conc. 400 nM,385.93 ± 32.19 nM
same,"Three freeze-thaw cycles (-80 °C ↔ 23 °C), RE",[2]; nominal conc. 400 nM,-12.56%
same,"At -80 °C for 48 h, Mean±SD",[2]; nominal conc. 1600 nM,1507.16 ± 152.79 nM
same,"At -80 °C for 48 h, RE",[2]; nominal conc. 1600 nM,-12.08%
same,"Extracted samples at 8 °C for 18 h, Mean±SD",[2]; nominal conc. 1600 nM,1574.79 ± 151.38 nM
same,"Extracted samples at 8 °C for 18 h, RE",[2]; nominal conc. 1600 nM,-11.93%
same,"Short-term stability at room temperature for 6 h, Mean±SD",[2]; nominal conc. 1600 nM,1463.38 ± 60.14 nM
same,"Short-term stability at room temperature for 6 h, RE",[2]; nominal conc. 1600 nM,-11.64%
same,"Three freeze-thaw cycles (-80 °C ↔ 23 °C), Mean±SD",[2]; nominal conc. 1600 nM,1434.32 ± 47.18 nM
same,"Three freeze-thaw cycles (-80 °C ↔ 23 °C), RE",[2]; nominal conc. 1600 nM,-13.10%
"CC(C)=CCC[C@](C)(O[C@@H]1O[C@H](CO)[C@@H](O)[C@H](O)[C@H]1O)[C@H]1CC[C@]2(C)[C@@H]1[C@H](O)C[C@@H]1[C@@]3(C)CC[C@H](O)C(C)(C)[C@@H]3[C@@H](O[C@@H]3O[C@H](CO)[C@@H](O)[C@H](O)[C@H]3O)C[C@]12C [Compound C6, Ginsenoside Rg1]",fraction unbound at 24 h,"[1]; equilibrium dialysis 24 h, 37 °C, 2 μmol/L alkaloids, 4 μmol/L saponins, read-out: fu-plasma (unbound fraction)",0.863 ± 0.0732
same,IC50,"CYP2C9; recombinant isozyme, mean ± SD of triplicate, unit not given (IC50 classes in μM)",> 100 µM
same,inhibition type (smallest AIC and SC),UGT1A1; UGT1A1,competitive inhibition
same,Ki,"UGT1A1; UGT1A1, competitive model",141 ± 10.5 µM
same,Ki,"UGT1A1; UGT1A1, mixed-type model",147 ± 29.9 µM
same,α,"UGT1A1; UGT1A1, mixed-type model",8.3 ± 37.2
same,Ki,"UGT1A1; UGT1A1, noncompetitive model",187 ± 12.7 µM
same,Cmax/Ki ([I]/Ki),"UGT1A1; UGT1A1, selected model, rat plasma Cmax",0.01
same,IC50,UGT1A1; [3],92.2 ± 40 µM
same,IC50,"UGT1A1; β-estradiol 60 μM, read-out: IC50 against UGT1A1",92.2 µM
same,IC50,UGT2B7,> 100 µM
same,"At -80 °C for 48 h, Mean±SD",[2]; nominal conc. 40 nM,37.29 ± 1.37 nM
same,"At -80 °C for 48 h, RE",[2]; nominal conc. 40 nM,-10.20%
same,"Extracted samples at 8 °C for 18 h, Mean±SD",[2]; nominal conc. 40 nM,35.69 ± 0.56 nM
same,"Extracted samples at 8 °C for 18 h, RE",[2]; nominal conc. 40 nM,-12.18%
same,"Short-term stability at room temperature for 6 h, Mean±SD",[2]; nominal conc. 40 nM,38.60 ± 1.14 nM
same,"Short-term stability at room temperature for 6 h, RE",[2]; nominal conc. 40 nM,-6.74%
same,"Three freeze-thaw cycles (-80 °C ↔ 23 °C), Mean±SD",[2]; nominal conc. 40 nM,39.64 ± 2.41 nM
same,"Three freeze-thaw cycles (-80 °C ↔ 23 °C), RE",[2]; nominal conc. 40 nM,-7.72%
same,"At -80 °C for 48 h, Mean±SD",[2]; nominal conc. 200 nM,209.85 ± 12.74 nM
same,"At -80 °C for 48 h, RE",[2]; nominal conc. 200 nM,10.34%
same,"Extracted samples at 8 °C for 18 h, Mean±SD",[2]; nominal conc. 200 nM,197.72 ± 17.37 nM
same,"Extracted samples at 8 °C for 18 h, RE",[2]; nominal conc. 200 nM,8.81%
same,"Short-term stability at room temperature for 6 h, Mean±SD",[2]; nominal conc. 200 nM,204.22 ± 5.64 nM
same,"Short-term stability at room temperature for 6 h, RE",[2]; nominal conc. 200 nM,4.83%
same,"Three freeze-thaw cycles (-80 °C ↔ 23 °C), Mean±SD",[2]; nominal conc. 200 nM,189.03 ± 9.20 nM
same,"Three freeze-thaw cycles (-80 °C ↔ 23 °C), RE",[2]; nominal conc. 200 nM,-10.01%
same,"At -80 °C for 48 h, Mean±SD",[2]; nominal conc. 800 nM,800.01 ± 77.30 nM
same,"At -80 °C for 48 h, RE",[2]; nominal conc. 800 nM,11.14%
same,"Extracted samples at 8 °C for 18 h, Mean±SD",[2]; nominal conc. 800 nM,826.40 ± 51.24 nM
same,"Extracted samples at 8 °C for 18 h, RE",[2]; nominal conc. 800 nM,10.42%
same,"Short-term stability at room temperature for 6 h, Mean±SD",[2]; nominal conc. 800 nM,737.30 ± 34.89 nM
same,"Short-term stability at room temperature for 6 h, RE",[2]; nominal conc. 800 nM,-11.11%
same,"Three freeze-thaw cycles (-80 °C ↔ 23 °C), Mean±SD",[2]; nominal conc. 800 nM,739.78 ± 39.17 nM
same,"Three freeze-thaw cycles (-80 °C ↔ 23 °C), RE",[2]; nominal conc. 800 nM,-11.08%
